Experimental data published in patent US20250270190A1, “KIT INHIBITORS” (BLUEPRINT MEDICINES CORPORATION, priority 2022, published 2025).

Molecular target: T1, c-kit autophosphorylation (Phospho c-Kit Tyr721) in HMC 1.1 (exon 11/13) cells, V654A (Homo sapiens, UniProt P10721, V560G/V654A)
T1 construct: endogenous in cells; host or cells: HMC 1.1 (exon 11/13) cells
Test: pKIT Meso Scale Discovery (MSD) assay, inhibition of autophosphorylation of KIT, HMC1.1_V654A
Format: cell-based
Conditions: Table 1, cell line not named for Table 1, b1056 names pKIT HMC1.1_V654A, read-out: Code (IC50 for inhibition of autophosphorylation of KIT, pKIT MSD assay)
Summary of the method: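 HMC1.1 cells were serum-starved for 4 h in serum-free, iron-free, phenol red-free IMDM, then treated with compound in dose-response for 90 min at 37 °C. Staurosporine and DMSO served as controls. Lysates were analysed by MSD electrochemiluminescence immunoassay for phospho-c-Kit Tyr721, and % inhibition of autophosphorylation was derived.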

T1 sequence (P10721 26-976 V560G/V654A): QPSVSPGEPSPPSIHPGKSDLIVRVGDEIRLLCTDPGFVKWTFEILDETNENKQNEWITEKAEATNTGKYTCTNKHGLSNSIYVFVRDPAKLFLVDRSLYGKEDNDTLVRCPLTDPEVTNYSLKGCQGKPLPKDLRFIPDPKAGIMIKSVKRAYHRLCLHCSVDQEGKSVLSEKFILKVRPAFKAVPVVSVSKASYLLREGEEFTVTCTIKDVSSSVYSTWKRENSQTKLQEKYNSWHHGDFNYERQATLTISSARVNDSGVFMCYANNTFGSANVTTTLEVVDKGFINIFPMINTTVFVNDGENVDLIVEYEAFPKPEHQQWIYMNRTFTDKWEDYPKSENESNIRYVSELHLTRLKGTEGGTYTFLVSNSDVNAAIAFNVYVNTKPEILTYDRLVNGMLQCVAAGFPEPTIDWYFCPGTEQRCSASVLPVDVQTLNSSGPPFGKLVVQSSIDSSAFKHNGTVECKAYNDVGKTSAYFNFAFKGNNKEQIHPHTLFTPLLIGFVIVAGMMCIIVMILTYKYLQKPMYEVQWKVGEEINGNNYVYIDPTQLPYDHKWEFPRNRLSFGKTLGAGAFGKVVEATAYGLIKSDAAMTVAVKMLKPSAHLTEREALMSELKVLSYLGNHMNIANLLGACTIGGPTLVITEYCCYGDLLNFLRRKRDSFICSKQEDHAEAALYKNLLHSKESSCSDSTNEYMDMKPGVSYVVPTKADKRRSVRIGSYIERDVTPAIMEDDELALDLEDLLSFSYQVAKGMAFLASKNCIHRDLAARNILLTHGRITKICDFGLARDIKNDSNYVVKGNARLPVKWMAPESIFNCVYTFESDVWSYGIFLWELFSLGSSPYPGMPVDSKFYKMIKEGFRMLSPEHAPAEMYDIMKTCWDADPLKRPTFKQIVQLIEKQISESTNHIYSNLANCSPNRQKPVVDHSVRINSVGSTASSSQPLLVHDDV

Row | Structure (SMILES) | IC50 [nM]
1 | CN1CC(n2cc(-c3cnc(Nc4cc(N)nc(C(F)F)n4)cc3OC[C@@H]3CCCO3)cn2)C1 [Compound 201, (S)-2-(difluoromethyl)-N4-(5-(1-(1-methylazetidin-3-yl)-1H-pyrazol-4-yl)-4-((tetrahydrofuran-2-yl)methoxy)pyridin-2-yl)pyrimidine-4,6-diamine] | 10 to 40
2 | CN1CC(n2cc(-c3cnc(Nc4cc(N)nc(C(F)F)n4)cc3OC[C@H]3CCCO3)cn2)C1 [Compound 202, (R)-2-(difluoromethyl)-N4-(5-(1-(1-methylazetidin-3-yl)-1H-pyrazol-4-yl)-4-((tetrahydrofuran-2-yl)methoxy)pyridin-2-yl)pyrimidine-4,6-diamine] | 10 to 40
3 | CN(CCn1cc(-c2cnc(Nc3cc(N)nc(C(F)F)n3)cc2OC2CC2)cn1)CC(F)(F)F [Compound 203, N4-(4-cyclopropoxy-5-(1-(2-(methyl(2,2,2-trifluoroethyl)amino)ethyl)-1H-pyrazol-4-yl)pyridin-2-yl)-2-(difluoromethyl)pyrimidine-4,6-diamine] | < 10

Next, values leading:

Row | IC50 [nM] | Structure (SMILES)
4 | < 10 | COc1cc(Nc2cc(N)nc(C(F)F)n2)ncc1-c1cnn(CCN(C)CC(F)(F)F)c1 [Compound 199, 2-(difluoromethyl)-N4-(4-methoxy-5-(1-(2-(methyl(2,2,2-trifluoroethyl)amino)ethyl)-1H-pyrazol-4-yl)pyridin-2-yl)pyrimidine-4,6-diamine]
5 | < 10 | CNC(C)(C)Cn1cc(-c2cnc(Nc3cc(N)nc(C(F)F)n3)cc2OC(F)(F)F)cn1 [Compound 200, 2-(difluoromethyl)-N4-(5-(1-(2-methyl-2-(methylamino)propyl)-1H-pyrazol-4-yl)-4-(trifluoromethoxy)pyridin-2-yl)pyrimidine-4,6-diamine]
